Target: T1, recombinant human β-Amyloid Peptide (1-42) (Homo sapiens, UniProt P05067)
T1 construct: recombinant human β-Amyloid Peptide (1-42) from BioLegend; purchased BioLegend 843801
Experiment: Binding assay: mass spectrometry (Q-TOF) of compounds binding to Aβ1-42
Settings: 22 pmol/μL β-Amyloid Peptide (1-42), 1100 pmol/μL test compound; direct infusion Q-TOF MS at room temperature
Text: The activity of the compounds utilized in the methods described herein can be assayed by measuring the binding of those compounds to β-amyloid. Data acquisition can be performed using a Waters Synapt G2-S quadrupole time of flight mass spectrometer (Q-TOF MS) with traveling wave ion mobility (Waters Corp. 34 Maple Street Milford, MA 01757). The data can be acquired using the systems sensitivity mode to allow for the detection of the less abundant oligomers. Samples can be infused at room temperature due to lower solubility of the peptide at body temperature ([…]).
One mg of compound can be reconstituted in 1 mL of Fisher Optima LC/MS grade water (cat: W6-1) and vortexed vigorously for 2 minutes until completely dissolved. The sample can be then diluted to create a 220 pmol/μL, 2200 pmol/μL, and 22,000 pmol/μL solutions to perform binding experiments to Aβ42 with 10-, 100-, and 1000-fold molar excess of tested compound.
One mg of recombinant human β-Amyloid Peptide (1-42) from BioLegend can be reconstituted in 200 μL of Fisher Optima LC/MS grade water and vortexed vigorously to solubilize the peptide creating a 5 mg/mL solution. Samples can be then diluted to a final concentration of 44 pmol/μL prior to mixing (1:1) with test compound solution. Final concentrations were 22 pmol/μL for human β-Amyloid Peptide (1-42) and 1100 pmol/μL for test compounds.
The data acquisition was performed using a Waters time of flight mass spectrometer (Q-TOF Micro). The data was acquired using the scanning mode to allow for the detection of the peptide. Samples were infused at room temperature. The mass spectrometer conditions were maintained throughout the study to ensure consistency of the data. The Waters Q-TOF conditions were as follows:
Samples were directly infused into the mass spectrometer at a flow rate of 20 μL/min using in-build Syringe Pump and Hamilton 1 mL Syringe and the acquisition time was kept 2 minutes.

T1 sequence (P05067 672-713 limits assumed): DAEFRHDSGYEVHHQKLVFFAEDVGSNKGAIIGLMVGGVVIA

Number of Molecules Bound to Aβ1-42 (# of Molecules Bound to Aβ) | Structure (SMILES)
1 | Nc1ccc(Nc2ccc(N)cc2S(=O)(=O)O)cc1 [Compound 160]
1 | Cc1oc2ccc(-c3ccccc3)cc2[n+]1CCCS(=O)(=O)[O-] [Compound 165]
0 | NC1=NN(c2ccc(Oc3ccccc3)c(S(=O)(=O)O)c2)C(=O)C1 [Compound 168]
0 | Nc1ccc2ccc(S(=O)(=O)[O-])cc2c1.[Na+] [Compound 149]
0 | CCCn1c(S(=O)(=O)O)nc2ccccc21 [Compound 145]
0 | COC(=O)c1cc(OC)c(S(=O)(=O)O)s1 [Compound 151]
0 | Cc1ccc2nc(-c3ccc(N)cc3)sc2c1S(=O)(=O)O [Compound 164]
6 | Nc1ccc(S(=O)(=O)O)cn1 [Compound 170]
0 | O=C(O)c1cc(=O)n(-c2ccc(S(=O)(=O)O)cc2)[nH]1 [Compound 161]
0 | Nc1nc2cc(S(=O)(=O)O)cc(N)c2o1 [Compound 172]
1 | Cc1cc(=O)n(-c2cccc(S(=O)(=O)O)c2)[nH]1 [Compound 154]
0 | Nc1cc(S(=O)(=O)[O-])c2cccc(S(=O)(=O)[O-])c2c1.[Na+].[Na+] [Compound 167]
7 | Nc1ccncc1S(=O)(=O)O [Compound 171]
5 | Cc1cc(C)[n+]2cc(S(=O)(=O)[O-])sc2n1 [Compound 148]
1 | Cc1cc(C)n(-c2ccc(S(=O)(=O)O)cc2)n1 [Compound 152]
0 | O=S(=O)(O)c1ccc(Nc2ccccc2)cc1 [Compound 150]
5 | CC[n+]1ccc(-c2cccc(S(=O)(=O)[O-])c2)o1 [Compound 153]
0 | CCOC(=O)c1cnn(-c2ccc(S(=O)(=O)O)cc2)c1N [Compound 163]
2 | Nc1ccc(-c2ccc(N)cc2S(=O)(=O)O)c(S(=O)(=O)O)c1 [Compound 166]

The remaining lines, values behind:

Structure (SMILES) | Number of Molecules Bound to Aβ1-42 (# of Molecules Bound to Aβ)
O=C1Nc2ccc(S(=O)(=O)O)cc2CO1 [Compound 141] | 0
Nc1cccc(S(=O)(=O)O)c1 [Compound 121] | 0
Nc1cccc2c(S(=O)(=O)O)cccc12 [Compound 138] | 0
NCc1ccc(S(=O)(=O)O)cc1 [Compound 125] | 0
Nc1cccc2cc(S(=O)(=O)O)ccc12 [Compound 139] | 0
O=S(=O)(O)c1nnc[nH]1 [Compound 117] | 3
Nc1cc(S(=O)(=O)O)ccc1O [Compound 128] | 0
Cn1c(S(=O)(=O)O)nc2ccccc21 [Compound 133] | 0
Nc1ncnc2[nH]c(S(=O)(=O)O)nc12 [Compound 134] | 2
Nc1cc(S(=O)(=O)O)cc(C(=O)O)c1O [Compound 143] | 0
Nc1ccc2cc(S(=O)(=O)O)ccc2c1 [Compound 135] | 0
O=S(=O)(O)c1ccc2[nH]cnc2c1 [Compound 130] | 0
Nc1ccc(S(=O)(=O)O)cc1 [Compound 122] | 0
Nc1ccc2cc(S(=O)(=O)O)ccc2c1.O [Compound 146] | 0
C[n+]1cccc(S(=O)(=O)[O-])c1 [Compound 120] | 8
Nc1ccc(S(=O)(=O)O)c(N)c1 [Compound 127] | 0
Nc1ccc(S(=O)(=O)O)c2ccccc12 [Compound 137] | 0
Nc1cccc2ccc(S(=O)(=O)O)cc12 [Compound 136] | 0
CN(C)C(=O)[n+]1ccc(CCS(=O)(=O)[O-])cc1 [Compound 158] | 0
Nc1ccc2c(S(=O)(=O)O)cccc2c1 [Compound 140] | 0
Nc1ccc(N)c(S(=O)(=O)O)c1 [Compound 126] | 1
Cn1cc(S(=O)(=O)O)cn1 [Compound 118] | 1
Nc1nc2ccc(S(=O)(=O)O)cc2s1 [Compound 142] | 2
O=S(=O)(O)c1ccc2c(c1)NCC2 [Compound 131] | 0
Nc1ncc(S(=O)(=O)O)s1 [Compound 124] | 3
Cn1cnnc1S(=O)(=O)O [Compound 119] | 0
Nc1ccc2c(S(=O)(=O)O)cccc2c1N [Compound 144] | 0

From patent publication US12036208B2, “Methods for treating neurodegenerative disorders” (Alzheon, Inc., priority 2017, dated 2024)
